Broadly, the IC50 is the point on the concentration scale where inhibition reaches its midpoint. A higher IC50 goes with lower potency. What is called EC50 is the concentration needed to bring the measured effect to its halfway point.

Experimental findings from ChEMBL document CHEMBL3414512, “Discovery of orally active anticancer candidate CFI-400945 derived from biologically promising spirooxindoles: success and challenges” (Eur J Med Chem, 2015) are described below.

The target of assay [1] is Serine/threonine-protein kinase PLK1 (Homo sapiens, UniProt P53350). Briefly: Inhibition of PLK-1 (unknown origin).
Sequence of Serine/threonine-protein kinase PLK1 (P53350 whole entry): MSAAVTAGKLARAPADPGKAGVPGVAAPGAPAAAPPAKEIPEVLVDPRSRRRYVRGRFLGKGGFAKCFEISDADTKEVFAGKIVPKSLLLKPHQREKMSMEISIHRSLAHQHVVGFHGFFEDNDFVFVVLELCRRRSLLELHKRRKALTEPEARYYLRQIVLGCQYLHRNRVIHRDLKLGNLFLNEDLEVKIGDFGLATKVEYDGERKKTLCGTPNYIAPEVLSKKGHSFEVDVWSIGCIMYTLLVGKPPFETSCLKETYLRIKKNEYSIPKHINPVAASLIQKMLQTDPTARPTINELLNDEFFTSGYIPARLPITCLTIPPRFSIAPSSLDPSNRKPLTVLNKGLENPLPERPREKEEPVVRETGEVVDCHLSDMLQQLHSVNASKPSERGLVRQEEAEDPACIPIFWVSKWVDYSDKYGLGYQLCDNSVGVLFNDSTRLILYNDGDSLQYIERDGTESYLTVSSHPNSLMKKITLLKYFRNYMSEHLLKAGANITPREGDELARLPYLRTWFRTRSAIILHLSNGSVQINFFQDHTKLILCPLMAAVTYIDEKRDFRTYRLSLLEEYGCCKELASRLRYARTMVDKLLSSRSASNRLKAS
Assay [2] deals with Serine/threonine-protein kinase PLK3 (Homo sapiens, UniProt Q9H4B4). Kind of assay: Inhibition of PLK-3 (unknown origin).
Sequence of Serine/threonine-protein kinase PLK3 (Q9H4B4 whole entry): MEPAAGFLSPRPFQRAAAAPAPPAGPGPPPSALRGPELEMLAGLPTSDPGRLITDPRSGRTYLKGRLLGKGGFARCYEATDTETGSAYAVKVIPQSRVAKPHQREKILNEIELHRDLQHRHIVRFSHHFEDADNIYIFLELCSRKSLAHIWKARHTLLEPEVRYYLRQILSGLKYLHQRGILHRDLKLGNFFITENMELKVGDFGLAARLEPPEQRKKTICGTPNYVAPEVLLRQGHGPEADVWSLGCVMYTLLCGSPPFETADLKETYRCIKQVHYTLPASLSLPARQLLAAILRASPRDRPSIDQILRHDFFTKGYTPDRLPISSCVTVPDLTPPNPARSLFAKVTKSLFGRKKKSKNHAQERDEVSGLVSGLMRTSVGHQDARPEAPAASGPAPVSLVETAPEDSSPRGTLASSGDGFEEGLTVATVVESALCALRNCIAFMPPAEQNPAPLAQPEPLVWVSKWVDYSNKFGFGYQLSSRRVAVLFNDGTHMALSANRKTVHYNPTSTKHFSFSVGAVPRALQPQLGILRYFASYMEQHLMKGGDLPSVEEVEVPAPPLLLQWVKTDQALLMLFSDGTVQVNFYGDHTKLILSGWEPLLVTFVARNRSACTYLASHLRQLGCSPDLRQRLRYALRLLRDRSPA
For assay [3], the target named is Serine/threonine-protein kinase PLK2 (Homo sapiens, UniProt Q9NYY3). Briefly: Inhibition of PLK-2 (unknown origin).
Sequence of Serine/threonine-protein kinase PLK2 (Q9NYY3 whole entry): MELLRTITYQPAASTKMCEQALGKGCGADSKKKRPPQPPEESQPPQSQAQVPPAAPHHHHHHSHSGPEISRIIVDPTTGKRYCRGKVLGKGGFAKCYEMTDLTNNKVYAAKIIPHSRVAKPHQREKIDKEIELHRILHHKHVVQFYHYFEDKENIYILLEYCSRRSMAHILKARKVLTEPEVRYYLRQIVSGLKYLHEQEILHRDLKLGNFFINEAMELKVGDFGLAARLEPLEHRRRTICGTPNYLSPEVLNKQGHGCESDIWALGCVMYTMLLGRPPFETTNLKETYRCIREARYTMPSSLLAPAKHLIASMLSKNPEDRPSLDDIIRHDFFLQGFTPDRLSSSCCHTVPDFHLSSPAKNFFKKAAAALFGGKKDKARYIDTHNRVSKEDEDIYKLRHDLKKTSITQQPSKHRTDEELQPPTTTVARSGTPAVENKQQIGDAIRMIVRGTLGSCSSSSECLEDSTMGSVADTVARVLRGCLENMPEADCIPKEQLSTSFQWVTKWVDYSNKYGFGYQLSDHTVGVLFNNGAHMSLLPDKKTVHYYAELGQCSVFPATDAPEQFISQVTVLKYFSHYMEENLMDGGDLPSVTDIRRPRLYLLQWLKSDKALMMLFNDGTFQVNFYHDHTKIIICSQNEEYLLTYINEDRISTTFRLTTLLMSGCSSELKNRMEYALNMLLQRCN
The target of assay [4] is Fibroblast growth factor receptor 1 (Homo sapiens, UniProt P11362). Briefly: Inhibition of FGFR1 (unknown origin).
Sequence of Fibroblast growth factor receptor 1 (P11362 whole entry): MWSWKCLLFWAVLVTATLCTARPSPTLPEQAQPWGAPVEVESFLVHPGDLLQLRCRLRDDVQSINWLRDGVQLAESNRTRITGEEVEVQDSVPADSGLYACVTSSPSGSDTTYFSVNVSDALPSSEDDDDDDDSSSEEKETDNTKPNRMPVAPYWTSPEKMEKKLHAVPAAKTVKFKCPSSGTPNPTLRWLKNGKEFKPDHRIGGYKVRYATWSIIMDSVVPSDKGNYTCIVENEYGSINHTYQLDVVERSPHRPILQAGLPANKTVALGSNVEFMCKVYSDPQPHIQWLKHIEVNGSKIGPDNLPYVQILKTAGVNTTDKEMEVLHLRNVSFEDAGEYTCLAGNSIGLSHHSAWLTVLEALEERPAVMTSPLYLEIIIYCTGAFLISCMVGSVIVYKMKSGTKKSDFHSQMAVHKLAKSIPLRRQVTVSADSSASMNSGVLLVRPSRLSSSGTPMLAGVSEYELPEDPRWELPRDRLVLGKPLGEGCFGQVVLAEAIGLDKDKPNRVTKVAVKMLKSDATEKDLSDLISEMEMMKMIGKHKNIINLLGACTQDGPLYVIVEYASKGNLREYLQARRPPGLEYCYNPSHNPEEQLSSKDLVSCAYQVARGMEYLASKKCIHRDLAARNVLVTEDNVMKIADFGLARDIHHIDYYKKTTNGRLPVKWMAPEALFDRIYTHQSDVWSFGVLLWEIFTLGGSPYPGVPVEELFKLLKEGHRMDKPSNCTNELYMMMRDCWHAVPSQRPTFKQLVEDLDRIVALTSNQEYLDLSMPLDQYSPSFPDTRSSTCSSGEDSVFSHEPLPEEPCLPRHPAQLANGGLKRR
A short description of assay [5]: Inhibition of SLC34A2/ROS (unknown origin). The arrangement: species or system Homo sapiens.

Some results are limits rather than exact numbers.

`COc1ccc2c(c1)[C@]1(C[C@H]1c1ccc3c(/C=C/c4ccc(CN5C[C@@H](C)O[C@@H](C)C5)cc4)n[nH]c3c1)C(=O)N2` [OCIFISERTIB]: the concentration for half-maximal inhibition (IC50) in assay [1], in assay [2] and in assay [3] was over 50 µM each time. The results for the EC50 in assay [4] and in assay [5] were 1.1 µM and 0.466 µM, respectively.
